Test: Measurement of Log P values by HPLC on reversed phase columns (EEC directive 79/831 Annex V.A8)
Format: physicochemical
Method: Measurement of Log P values as provided herein was performed according to EEC directive 79/831 Annex V.A8 by HPLC (High Performance Liquid Chromatography) on reversed phase columns with the following methods: • ^[a] Log P value is determined by measurement of LC-UV, in an acidic range, with 0.1% formic acid in water and acetonitrile as eluent (linear gradient from 10% acetonitrile to 95% acetonitrile). • ^[b] Log P value is determined by measurement of LC-UV, in a neutral range, with 0.001 molar ammonium acetate solution in water and acetonitrile as eluent (linear gradient from 10% acetonitrile to 95% acetonitrile). • ^[c] Log P value is determined by measurement of LC-UV, in an acidic range, with 0.1% phosphoric acid and acetonitrile as eluent (linear gradient from 10% acetonitrile to 95% acetonitrile).
If more than one Log P value is available within the same method, all the values are given and separated by “+”.
Calibration was done with straight-chain alkan2-ones (with 3 to 16 carbon atoms) with known Log P values (measurement of Log P values using retention times with linear interpolation between successive alkanones). Lambda-max-values were determined using UV-spectra from 200 nm to 400 nm and the peak values of the chromatographic signals

Row | LogP | Structure (SMILES)
1 | 4.19^[a] | Cc1nnc(Oc2cccc(C3CC3)c2)c(C(=O)NCC(F)(F)c2ccc(C)c(C)c2)n1 [Compound I-031]
2 | 4.26^[a] | C#Cc1cccc(Oc2nnc(C3CC3)nc2C(=O)NCC(F)(F)c2ccc(C)cc2C)c1 [Compound I-073]
3 | 4.42^[a] | CCc1cccc(Oc2cnc(C)nc2C(=O)NCC(F)(F)c2ccc(C)cc2C)c1 [Compound I-071]
4 | 1.96^[a] | COc1ncc(Oc2cccc(C(F)(F)F)c2)c(C(=O)O)n1 [Compound 1-04]
5 | 3.62^[a] | Cc1ncc(Oc2cccc(C3CC3)c2F)c(C(=O)N[C@H]2CCOc3ccc(F)cc32)n1 [Compound I-017]
6 | 3.95^[a] | CCOC(=O)c1nc(C2CC2)nnc1Oc1cccc(C(F)(F)F)c1 [Compound 1-05]
7 | 3.54^[a] | Cc1ncc(Oc2cccc(C3CC3)c2F)c(C(=O)NC2CCOc3ccccc32)n1 (centres unmarked) [Compound I-046]
8 | 3.62^[a] | Cc1ncc(Oc2cccc(C3CC3)c2F)c(C(=O)NC2CCOc3ccc(F)cc32)n1 (racemic) [Compound I-030]
9 | 3.93^[a] | Cc1ncc(Oc2cccc(C3CC3)c2F)c(C(=O)NCCOc2ccc(Cl)cc2)n1 [Compound I-054]
10 | 3.78^[a] | CCOC(=O)c1nc(C2CC2)nnc1Oc1cccc(C)c1F [Compound 1-09]
11 | 3.59^[a] | Cc1ccc(C(F)(F)CNC(=O)c2nc(C)ncc2Oc2ccc3c(c2)CCO3)c(C)c1 [Compound I-128]
